The record followed here is patent US10526317B2, “Benzocyanine compounds” (PIERCE BIOTECHNOLOGY, INC., priority 2012, dated 2020).

For data set [1], the system named is lamin A. The experiment in a line: Immunofluorescence detection of lamin A in U2OS cells, dye-GAM secondary (FIG. 29A-C and repeat). Format: cell-based, human. The note with it: for Mean Total Intensity, Negative control: no primary antibody. On the procedure:
In the indicated experiments, the inventive compounds and commercial dye were evaluated for immunofluorescence in a cell based assay using the following protocol. Frozen U20S cell plates which were stored at −80° C. were thawed for 45 minutes at 50° C. Storage buffer (PBS) was removed and the cells were permeabilized for 15 minutes with 0.1% Triton-X100 in 1×PBS buffer (100 μl/well). The cell plate was blocked for 60 minutes in 2% BSA/PBS-0.1% Triton-X100. Primary antibody, either rat anti-Grp94 (5 μg/ml), mouse anti-lamin A (10 μg/ml), or rabbit anti-lamin B1 (10 μg/ml), diluted in 2% BSA/PBS-0.1% Triton-X100 was added to the plate and incubated for 1 hour at room temperature. Control wells contained only 2% BSA/PBS-0.1% Triton-X100 blocker. After incubation, the antibody solution was removed from the plate and the plate was washed three times with 100 μl/well of PBS-0.5% Tween-20 and one time with 100 μl/well PBS. GARat, GAM, or GAR secondary antibodies labeled with various molar excess of the inventive or commercial compound were diluted to 4 μg/ml in PBS and incubated for 1 hour at room temperature. The plates were washed three times with 100 μl/well of PBST and once with 100 μl/well PBS, and Hoechst (diluted to 0.1 μg/ml in PBS) was added to each well (100 μl/well). The plates were scanned on ArrayScan Plate Reader or ToxInsight Instrument.
Quantitative analysis of a repeat experiment of FIG. 29A-C are shown below.

For the next data set, the system named is CEA. On the set-up: species or system nu/nu mice. The settings on record: mouse. The procedure:
The inventive compounds are used for in vivo imaging as described in J. Gastrointest Surg (2008) 12:1938-1950. Briefly, human pancreatic cell lines are maintained in media supplemented with penicillin/streptomycin at 37° C. with 5% CO2. Mouse anti-CEA antibody and Control Mouse IgG (in PBS with 0.20% sodium azide) are conjugated to V08-15173. The dye is reconstituted at 10 mg/ml in DMF and then added to the antibody at a 10 molar excess. The reaction is carried out for one hour at room temperature. The samples are then dialyzed against 3×2 L of PBS. The cell lines are plated in 96-well plates at 5×10^4 cells per well. After 48 hours culture in appropriate media, the cells are incubated with 1 μg of V08-15173 labeled anti-CEA antibody or V08-15173-labeled control mouse IgG for four hours at 37° C. The cells are then washed three times with PBS and then imaged with an inverted Nikon De-485 microscope and Spot camera RD.
Surgical procedures and intravital imaging are performed with the animals anesthesized by intramuscular injection of 0.02 ml of 50% ketamine, 38% xylazine and 12 acepromazine maleate. Human pancreatic and colorectal cancer cell lines are harvested by trypsinization and washed twice with serum free medium and washed twice with serum-free medium. Cells (1×10^6 in 100 μl of serum-free media) are injected subcutaneously within 30 minutes of harvesting over the right flank in female nu/nu mice between 4-6 weeks of age. Subcutaneous tumors are allowed to grow for 7-14 days until they reached diameter of 1-2 mm prior to the delivery of conjugated antibody. For ASPC-1 implants, the cells are harvested by trpsinization and washed 3× in serum-free media. The cells are resuspended in serum-free media. The cells are resuspended in serum-free media at 5×10^6/ml. A volume of 200 μl of the cell suspension is then injected directly into the peritoneal cavity within 30 minutes of harvesting.
For antibody delivery, one to two weeks after subcutaneous, orthotopic, or intraperitoneal tumor implantation, animals are given intravenous (i.v.) injection of either conjugated anti-CEA or conjugated control IgG antibody diluted in PBS to a final volume of 100 μl. All i.v. injections are done via the tail vein. For the dose-response experiment, the antibody dose is 75 μg. For the in vivo time course, the animals are anesthesized and imaged at 30 min, 1, 2, 6, 24 hours and 8 and 15 days after systemic antibody delivery.
The inventive compounds are used for in vivo imaging as described in J. Gastrointest Surg (2008) 12:1938-1950. Briefly, human pancreatic cell lines are maintained in media supplemented with penicillin/streptomycin at 37° C. with 5% CO2. Mouse anti-CEA antibody and Control Mouse IgG (in PBS with 0.20% sodium azide) are conjugated to 779 Compound 1. […]

Data set [2] relates to lamin A. The experiment in a line: Immunofluorescence, U2OS cells, mouse anti-lamin A, dye-GAM secondary (FIG. 25). The data set is classed as cell-based, human. The procedure: The inventive compounds and commercial dye were evaluated for immunofluorescence in a second cell based assay using the following protocol. Frozen U20S cell plates stored at −20° C. were placed overnight at 4° C. Storage buffer (PBS) was removed and the cells were permeabilized for 15 min (100 μl/well) with 0.1% Triton-X100 in 1×PBS buffer. Plates were blocked for 30 min in 2% BSA in 1× PBS-0.1% Trion-X100. Primary antibodies diluted in 2% BSA in 1×PBS-0.1% Trion-X100 were added to the plates (column 1-11; column 12 included only blocker) and incubated five hours at room temperature. Mouse anti-lamin A was added at 2 μg/ml and rabbit anti-lamin B1 was added at 4 μg/ml. After incubation, the antibody solution was removed from the plates and the plates were washed PBS-0.5% Tween-20 (2×100 μl/well). Next, GAM and GAR secondary antibodies labeled with DyLight 680-NHS, DyLight 680B-NHS, 679 Compound 1-NHS, and Cy5.5 Mono Ester were diluted to 4 μg/ml in PBS and incubated with the cells for one hour at room temperature. […], DyLight 680B-NHS, 679 Compound 1-NHS, […] PBS and then serially diluted 1:1 in the plate to the following concentrations: 2 μg/ml, 1 μg/ml, 0.5 μg/ml, 0.25 μg/ml, 0.125 μg/ml and/or 0.0625 μg/ml. The plates were washed 3× with 100 μl/well PBS, and Hoechst stain diluted to 0.1 μg/ml in PBS was added to each well (100 μl/well). The plates were scanned on ArrayScan Plate Reader for imaging and quantitation.
Quantitative analysis of FIG. 25 data, expressed as Mean Total Intensity, which is the average total intensity of all pixels within a defined area or defined primary object such as a nucleus, is shown below.

Entries after “also recorded” stand apart in the source; their conditions may differ.

`COCCOCCOCCOCC[N+]1=C(/C=C/C=C/C=C2/N(CCOCCOCCOCCOCCC(=O)ON3C(=O)CCC3=O)c3ccc4c(S(=O)(=O)[O-])cc(S(=O)(=O)O)cc4c3C2(C)CCOCCOCCOCCOC)C(C)(CCOCCOCCOCCOC)c2c1ccc1c(S(=O)(=O)O)cc(S(=O)(=O)O)cc21` (stereo not drawn) [Compound V08-15173]: the S/B with lamin A [1] (2.5 X molar excess) is 2.9; with lamin A [1] (5.0 X molar excess), 4.9; with lamin A [1] (7.5 X molar excess), 6.0; in the data set with lamin A [1] (10 X molar excess), 4.9; in the data set on lamin A [1] (15 X molar excess), 4.6; in the data set with lamin A [1] (repeat experiment, 2.5 X), 9.8. Also, the S/B with lamin A [1] (repeat experiment, 5 X) was found to be 19.4; with lamin A [1] (repeat experiment, 10X), 29.9; in the data set with lamin A [1] (repeat experiment, 15 X), 12.2. Also, the “Mean Total Intensity (Average)” value in the data set on lamin A [1] (GAM conjugate 4 μg/ml, 2.5 X molar excess) is listed as 17366; in the data set with lamin A [1] (GAM conjugate 4 μg/ml, 5.0 X molar excess), 32820; in the data set with lamin A [1] (GAM conjugate 4 μg/ml, 7.5 X molar excess), 42876; in the data set on lamin A [1] (GAM conjugate 4 μg/ml, 10 X molar excess) it was 47756; with lamin A [1] (GAM conjugate 4 μg/ml, 15 X molar excess), 49060; with lamin A [1] (repeat experiment, 2.5 X molar excess), 118440. Further, the “Mean Total Intensity (Average)” value is given as 183078 in the data set on lamin A [1] (repeat experiment, 5 X molar excess); 391473 in the data set on lamin A [1] (repeat experiment, 10X molar excess); 211270 in the data set with lamin A [1] (repeat experiment, 15 X molar excess). For the same compound, the “non-specific binding / specificity (in words)” value in the data set with lamin A [1] (GAM conjugates) is reported as “a minimal amount of non-specific binding; also recorded: little non-specific binding”. For the same compound, the “Mean Total Intensity, Negative control” value with lamin A [1] (2.5 X) is 5966; in the data set with lamin A [1] (5.0 X), 6643; in the data set on lamin A [1] (7.5 X), 7100; in the data set on lamin A [1] (10 X) it was 9690; with lamin A [1] (15 X), 10779; in the data set on lamin A [1] (repeat experiment, 2.5 X), 12053. Further, the “Mean Total Intensity, Negative control” value in the data set with lamin A [1] (repeat experiment, 5 X) is 9441; with lamin A [1] (repeat experiment, 10X), 13094; with lamin A [1] (repeat experiment, 15 X), 17260. In addition, in the data set on CEA, the “Ex vivo analysis of the vital organs (in words)” value was “presence of dye predominantly in the liver with some signal detected in the spleen intestines and lungs”. In the data set with CEA (in vivo), the “post-experiment surgical exposure (in words)” value was “accumulation of dye in the liver, bladder, and a region of inflammation in the subcutaneous tissue”.
In the case of Cy5.5, the “Mean Total Intensity” value in the data set on lamin A [2] (GAM conjugated at 2X molar excess) was 211945; with lamin A [2] (GAM conjugated at 3X molar excess), 342208; with lamin A [2] (GAM conjugated at 4X molar excess), 451111.
